Here are results for 7 compounds from patent US20050054722A1, “Inhibition of two-component signal transduction systems” (Unisearch Limited,, priority 1999, published 2005).

The subject of series [1] is P. syringae var tomato BB27 swarming (GacS/GacA). Put plainly: GacS/GacA assay (swarming on 0.4% agar SWM plates). It counts as cell-based, Pseudomonas syringae var. tomato. As to the method: P. syringae var tomato BB27 was grown overnight in SWM media at room temperature. This culture was used to stab inoculate SWM plates made up with 0.4% agar and incubated at room temperature (20° C.). The culture was also used to stab inoculate sets of SWM plates (0.4% agar) that bad been made up with 25 μg/ml and 50 μg/ml of the test compound (stock solutions made up in ethanol). These plates were also incubated at room temperature for 36 hours before being examined for swarming activity and photographed. Before use all 0.4% agar SWM plates were allowed to air-dry for two hours in a laminar flow cabinet at room temperature.
Furanones interfere with the “swarming” response of Pseudomonas syringae, which is regulated by the GacS/GacA two-component signal transduction system (Kinscherf and Willis, 1999).

A further series deals with Staphylococcus aureus. In words: Minimum inhibitory (growth) concentration, S. aureus. The note with it: growth curves, OD 610 nm. It counts as cell-based. As to the method: (§1) Growth curve method. Bacteria are grown overnight in standard medium. The following morning, the cells were inoculated into fresh medium at 1% (a 1 in 100 dilution). Furanones were added either at the beginning of growth (time 0) or, as was the case for the B. subtilis experiments, the results of which are shown in FIG. 1, during the mid-logarithmic phase of growth. Growth was then monitored regularly by spectrophotometric readings, at a wavelength of 610 nm. Using the type of growth described above, the minimum growth inhibitory concentration of furanones was determined for S. aureus and Streptococcus spp. were determined for a range of compounds.

In another series the test system is Streptococcus spp. In words: Minimum inhibitory (growth) concentration, Streptococcus spp. It counts as cell-based. The note with it: growth curves, OD 610 nm. The method, then:
as §1

Series [2] has as its system Bacillus subtilis strain ATCC 6633 and NCTC 10073. Put plainly: Growth curves, Bacillus subtilis. It counts as cell-based. The note with it: compound added at 8-9 hours of growth, FIG. 1. The method, then: The compound was added at 8-9 hours, as denoted by the arrows, after the cultures had been growing. B. subtilis has a two component system that, when deleted, results in lysis and cell death.
Growth curve method. Bacteria are grown overnight in standard medium. The following morning, the cells were inoculated into fresh medium at 1% (a 1 in 100 dilution). Furanones were added either at the beginning of growth (time 0) or, as was the case for the B. subtilis experiments, the results of which are shown in FIG. 1, during the mid-logarithmic phase of growth. Growth was then monitored regularly by spectrophotometric readings, at a wavelength of 610 nm.

The next series deals with S. aureus. As to conditions: cited from earlier work.
In another series the test system is E. faecium. As to conditions: cited from earlier work.
The next series has as its system Streptococcus pneumoniae. As to conditions: cited from earlier work.
The target in the next series is HPK NRII (Escherichia coli, UniProt P0AFB5). As to conditions: Hilliard et al. 1999; cited from earlier work.
Chain of HPK NRII (P0AFB5 whole entry): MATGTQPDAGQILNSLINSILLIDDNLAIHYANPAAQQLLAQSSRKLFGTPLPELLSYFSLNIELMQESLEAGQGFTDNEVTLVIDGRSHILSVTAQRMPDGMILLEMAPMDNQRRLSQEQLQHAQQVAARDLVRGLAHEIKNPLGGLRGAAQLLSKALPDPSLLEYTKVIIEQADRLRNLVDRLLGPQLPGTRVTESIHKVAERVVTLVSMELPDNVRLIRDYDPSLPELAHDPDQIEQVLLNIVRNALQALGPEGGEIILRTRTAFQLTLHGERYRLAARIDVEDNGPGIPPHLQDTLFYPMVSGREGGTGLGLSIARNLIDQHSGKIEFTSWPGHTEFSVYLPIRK
The next series has as its system S. aureus cells. As to conditions: cited from earlier work.
In series [3] the test system is CopS/CopR two component signal transduction system. Put plainly: CopS/CopR assay (cop'-lacZ, Cu2+-induced). It counts as cell-based, Pseudomonas syringae pv. syringae. As to conditions: for cop'-lacZ expression: 0.075 mM CuSO4, 6.5 hours. The method, then: P. syringae pv syringae PS61 (pCOP38)(pPT23D) was grown on SWM media (Kinscherf and Willis, 1999) at room temperature with shaking for 48 hours. Five μg/ml streptomycin, 15 μg/ml chloramphenicol and 1.0 mM CuSO4 were added to maintain plasmids. This culture was used to inoculate 50 ml SWM media in side-arm flasks with the addition of antibiotics. These cultures were incubated at room temperature with shaking for 16 hours (OD610=0.2) at which point CuSO4 was added to a concentration of 0.075 mM (CuSO4 solution made up in MQ water).
The test compound or mixtures of compounds were dissolved in ethanol and added to cultures to give the required final concentrations. Equal volumes of ethanol were added to Cu^2+ negative and positive cultures. Cultures were incubated for 6.5 hours at room temperature with shaking before being placed on ice. Samples were then removed for β-galactosidase assays. β-galactosidase assays were carried out in the same manner as those for the Taz assay described above.
The effect of furanone compound 3 on the CopS/CopR two component signal transduction system that regulates copper resistance in Pseudomonas syringae pv. syringae (Mills et al., 1993) was assessed. […] However, there appears to be no difference in terms of lacZ expression between the two concentrations (p>0.15).

`O=C1C=C(Br)/C(=C/Br)O1` [Compound 30]: the “swarming response in P. syringae” value in series [1] (concentration not given) is on record as “inhibited the swarming response”. In addition, the “Minimum inhibitory (growth) concentration, Staphylococcus aureus” value (“Minimum inhibitory … Staphylococcus aureus” below) in the series on Staphylococcus aureus was 1 to 20 µg/mL. Further, the “Minimum inhibitory (growth) concentration, Streptococcus spp.” value in the series on Streptococcus spp. was 10 µg/mL.
`CCCCC1=C(Br)/C(=C/Br)OC1=O` [Compound 2]: the “growth response (optical density)” value in series [2] is given as “induction of cell lysis”. Also, in the series with Staphylococcus aureus, the “Minimum inhibitory … Staphylococcus aureus” value is 1 to 10 µg/mL.
In the case of `CCCCCC(Br)C1=C(Br)/C(=C/Br)OC1=O` (centres unmarked) [Compound 33], the “Minimum inhibitory … Staphylococcus aureus” value in the series on Staphylococcus aureus is 0.5 µg/mL.
The same measure, in the same setting: for `CCCCCC(Br)C1=CC(=C(Br)Br)OC1=O` (centres unmarked) [Compound 34] the value was 0.25 µg/mL.
Consider `NC(N)=NCCc1ccc(OCCC(c2ccccc2)(c2ccccc2)c2ccccc2)cc1` [RWJ-49815], for which the “active concentration (antibacterial)” value with S. aureus, in the series on E. faecium and in the series with Streptococcus pneumoniae was 1 to 2 µg/mL in each case. On HPK NRII, the “autophosphorylation of the HPK NRII” value was “inhibited the autophosphorylation”. The “permeability of the membranes of S. aureus cells” value in the series with S. aureus cells is given as “caused a rapid increase in the permeability”.
Consider `CCC[C@@H](O)C1=C(Br)/C(=C/Br)OC1=O` [Compound 4], for which, in [3] (concentration not given), the “normal activity of the CopS/CopR two-component signal transduction system” value is listed as “appeared to reduce the normal activity”. The “Minimum inhibitory (growth) concentration, Streptococcus spp.” value in the series on Streptococcus spp. amounted to 10 µg/mL.
As to `CCC[C@@H](OC(C)=O)C1=C(Br)/C(=C/Br)OC1=O` [Compound 3], the “cop'-lacZ expression” value in series [3] (25 μg/ml) and in [3] (50 μg/ml) was “significantly reduced” throughout. In addition, the growth inhibitory effects result in [3] (at the concentrations used (25 and 50 μg/ml), P. syringae pv syringae) is “did not have any growth inhibitory effects”. Also, the swarming pattern entry in [1] (25 μg/ml, 36 hours) was “dramatically alters the swarming pattern”. Moreover, in series [1] (50 μg/ml), the “growth of P. syringae var. tomato” value is “did not inhibit the growth”. Moreover, in series [1] (50 μg/ml, 36 hours), the swarming result is “shut down swarming”.
